Test results reported in ChEMBL document CHEMBL1201862, “PubChem BioAssay data set” (2004).
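Where inhibition never reached the appropriate level, the endpoint shown equals the highest concentration tested. Otherwise, values were interpolated linearly from a five-concentration, 48-hour dose response in 96-well plates. Here, GI50 denotes the concentration required for 50% inhibition of growth.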 Calls of active or inactive are those of the source. No stated cut-off is given here; in the data, active = GI50 up to about 1.1 µM and inactive = higher.

Key:
Assay in all cases: NCI-60 cell line screen, 48 h
A498 = system: A498
A549 = system: A549
ACHN = system: ACHN
HCC 2998 = system: HCC 2998
HOP-92 = system: HOP-92
HT-29 = system: HT-29
KM12 = system: KM12
LOX IMVI = system: LOX IMVI
M14 = system: M14
MCF7 = system: MCF7
MDA-MB-231 = system: MDA-MB-231
NCI-H460 = system: NCI-H460
OVCAR-5 = system: OVCAR-5
SF-268 = system: SF-268
SF-539 = system: SF-539
SW-620 = system: SW-620
TK-10 = system: TK-10
U-251 = system: U-251
UACC-62 = system: UACC-62

Measured: GI50

O=[N+]([O-])C(=C1Nc2ccccc2N1)C(Cl)=C(Cl)Cl
inactive: A498 > 100 µM | A549 > 100 µM | ACHN > 100 µM | HCC 2998 > 100 µM | HOP-92 > 100 µM | HT-29 > 100 µM | KM12 > 100 µM | LOX IMVI > 100 µM | M14 62.5 µM | MCF7 39.7 µM | MDA-MB-231 24.8 µM | NCI-H460 > 100 µM | OVCAR-5 > 100 µM | SF-268 44.1 µM | SF-539 > 100 µM | SW-620 > 100 µM | TK-10 > 100 µM | U-251 > 100 µM | UACC-62 > 100 µM

C=C1CC(CNc2cc(Cl)nc(N)n2)C1
inactive: A498 1.99 µM | A549 > 100 µM | ACHN > 100 µM | HCC 2998 > 100 µM | HOP-92 78.2 µM | HT-29 > 100 µM | KM12 > 100 µM | LOX IMVI > 100 µM | MCF7 > 100 µM | MDA-MB-231 > 100 µM | NCI-H460 > 100 µM | OVCAR-5 > 100 µM | SF-268 > 100 µM | SF-539 > 100 µM | SW-620 > 100 µM | TK-10 > 100 µM | U-251 55.6 µM | UACC-62 > 100 µM

CCOC(=O)N1CCNCCN(C(=O)OCC)CCNCC1
inactive: A498 > 100 µM | A549 > 100 µM | ACHN > 100 µM | HCC 2998 > 100 µM | HOP-92 > 100 µM | HT-29 > 100 µM | LOX IMVI > 100 µM | M14 > 100 µM | MCF7 > 100 µM | MDA-MB-231 > 100 µM | NCI-H460 > 100 µM | OVCAR-5 > 100 µM | SF-268 > 100 µM | SF-539 > 100 µM | SW-620 > 100 µM | TK-10 > 100 µM | U-251 > 100 µM | UACC-62 > 100 µM

CC(=O)OCC1OC(Oc2cc(C)c(O)cc2C/C=C(\C)CC/C=C(\C)C[C@@H](C=C(C)C)OC(C)=O)C(O)C(OC(C)=O)C1OC(C)=O (some centres undefined)
inactive: A498 15.2 µM | A549 19.1 µM | ACHN 20 µM | HCC 2998 16.9 µM | HOP-92 > 50 µM | HT-29 17.7 µM | KM12 15.7 µM | LOX IMVI 13.9 µM | M14 23.3 µM | MCF7 16 µM | MDA-MB-231 37.3 µM | NCI-H460 14.2 µM | OVCAR-5 > 50 µM | SF-268 28.2 µM | SW-620 23.6 µM | TK-10 22.9 µM | U-251 25.5 µM | UACC-62 13.1 µM

Cc1cc2nc(-c3c(F)cccc3F)n(Cc3c(F)cccc3F)c2cc1C
inactive: A498 20.1 µM | A549 12.1 µM | ACHN 14.3 µM | HCC 2998 9.71 µM | HOP-92 12.7 µM | HT-29 15.5 µM | KM12 14.8 µM | LOX IMVI 14.3 µM | M14 12.2 µM | MCF7 15.2 µM | MDA-MB-231 14 µM | NCI-H460 13.6 µM | OVCAR-5 16.6 µM | SF-268 18.8 µM | SF-539 18.5 µM | SW-620 16.3 µM | TK-10 29.4 µM | U-251 11.1 µM

Cc1nc2cc3ccccc3cc2[nH]c1=O
inactive: A498 19.8 µM | A549 > 100 µM | HCC 2998 > 100 µM | HOP-92 26.1 µM | HT-29 > 100 µM | KM12 85.1 µM | LOX IMVI > 100 µM | M14 > 100 µM | MCF7 30.2 µM | MDA-MB-231 72.3 µM | NCI-H460 61.1 µM | OVCAR-5 > 100 µM | SF-268 39.3 µM | SF-539 53.2 µM | SW-620 > 100 µM | TK-10 80.2 µM | U-251 55.1 µM | UACC-62 36.3 µM

C/C(=N\O)c1cccc(Nc2c3ccccc3nc3occc23)c1
inactive: A498 16.7 µM | A549 4.93 µM | ACHN 8.07 µM | HCC 2998 4.89 µM | HOP-92 7.24 µM | HT-29 9.1 µM | KM12 6.11 µM | LOX IMVI 5.78 µM | M14 8.15 µM | MCF7 2.39 µM | MDA-MB-231 4.51 µM | NCI-H460 5.15 µM | OVCAR-5 48 µM | SF-268 13.3 µM | SF-539 4.25 µM | TK-10 10.1 µM | U-251 13.6 µM | UACC-62 3.42 µM

COc1cc2nc(Cl)nc(NS(=O)(=O)c3cc4ccccc4s3)c2cc1OC
inactive: A498 16.4 µM | A549 32 µM | ACHN 30.8 µM | HCC 2998 19 µM | HOP-92 18 µM | HT-29 27.5 µM | KM12 23.3 µM | LOX IMVI 23.3 µM | M14 26.2 µM | MCF7 31.6 µM | MDA-MB-231 24.9 µM | NCI-H460 32.5 µM | OVCAR-5 19.6 µM | SF-268 35.3 µM | SF-539 37.2 µM | SW-620 17.1 µM | TK-10 28.3 µM | U-251 27.3 µM | UACC-62 16.9 µM

CC1=NN(c2ccc(S(=O)(=O)O)cc2)C2(C1)C(Cl)C(=O)N2c1nc2ccccc2s1 (centres undefined)
inactive: A498 > 100 µM | A549 > 100 µM | ACHN > 100 µM | HCC 2998 > 100 µM | HOP-92 > 100 µM | HT-29 > 100 µM | KM12 > 100 µM | LOX IMVI 57.8 µM | M14 > 100 µM | MCF7 > 100 µM | MDA-MB-231 > 100 µM | NCI-H460 > 100 µM | OVCAR-5 > 100 µM | SF-268 > 100 µM | SW-620 > 100 µM | TK-10 > 100 µM | U-251 > 100 µM | UACC-62 95.9 µM

C=C[C@]1(O)CCC[C@]2(C)C(=O)CCC12C (some centres undefined)
inactive: A498 > 100 µM | A549 > 100 µM | ACHN > 100 µM | HCC 2998 > 100 µM | HOP-92 > 100 µM | HT-29 > 100 µM | KM12 > 100 µM | LOX IMVI > 100 µM | M14 > 100 µM | MCF7 > 100 µM | MDA-MB-231 > 100 µM | NCI-H460 > 100 µM | OVCAR-5 > 100 µM | SF-268 > 100 µM | SF-539 > 100 µM | SW-620 > 100 µM | U-251 > 100 µM | UACC-62 > 100 µM

O=C(NNCc1ccccc1O)c1ccccc1O
inactive: A498 31.4 µM | A549 8.13 µM | ACHN 5.12 µM | HCC 2998 4.01 µM | HOP-92 33 µM | HT-29 9.38 µM | KM12 8.91 µM | LOX IMVI 3.09 µM | M14 9.16 µM | MCF7 12.5 µM | MDA-MB-231 > 100 µM | OVCAR-5 3.59 µM | SF-539 16.5 µM | SW-620 3.48 µM | TK-10 31.4 µM | U-251 5.75 µM | UACC-62 5.42 µM
